# Laboratory results from patent EP0003353A1, “A pharmaceutical composition for oral administration for treating hypertension” (Merck & Co., Inc., priority 1978, dated 1979).
# System: spontaneously hypertensive (SH) rats
# Assay: Mean arterial pressure of conscious SH rats, direct measurement by cannulation of the caudal artery
# Format: in vivo
# Details: for Mean arterial pressure at hours after treatment 0: 0 h; for Mean arterial pressure at hours after treatment 1/2: 1/2 h; for Mean arterial pressure at hours after treatment 1: 1 h; for Mean arterial pressure at hours after treatment 2: 2 h; for Mean arterial pressure at hours after treatment 4: 4 h; for Mean arterial pressure at hours after treatment 8: 8 h; for Mean arterial pressure at hours after treatment 12: 12 h; for Mean arterial pressure at hours after treatment 18: 18 h; for Mean arterial pressure at hours after treatment 24: 24 h
# Method: The test procedure used is substantially as follows: • The test animals used were conscious, male, SH rats weighing about 290 to about 340 grams. The arterial blood pressure was measured by a direct technique involving cannulation of the caudal artery. Initial blood pressure reading was recorded. The decarboxylase inhibitor was then administered intraperitoneally (i.p.) and about 5 minutes later the L-a-methyl-p-tyrosine was given [(i.p. or orally (p.o.)]. The blood pressure was then continuously recorded at 1/2 hour intervals for 24 hours. The effect on blood pressure of the decarboxylase inhibitor and the L-a-methyl-p-tyrosine alone was also obtained by this test method. The results of representative tests are in the following table: […]
# [1] = Test No. 2, Carbidopa 25 mg/kg i.p.
# [2] = Test No. 13, Carbidopa 25 mg/kg i.p.
# [3] = Test No. 3, α-methyl-p-tyrosine 5 mg/kg i.p.
# [4] = Test No. 4, α-methyl-p-tyrosine 20 mg/kg i.p.
# [5] = Test No. 5, α-methyl-p-tyrosine 40 mg/kg i.p.
# [6] = Test No. 6, α-methyl-p-tyrosine 80 mg/kg i.p.
# [7] = Test No. 14, α-Methyl-p-tyrosine 80 mg/kg p.o.
smiles,measurement,setting,value
C[C@@](Cc1ccc(O)c(O)c1)(NN)C(=O)O [Carbidopa],Mean arterial pressure at hours after treatment 0,[1],167 mm Hg
same,Mean arterial pressure at hours after treatment 1/2,[1],166 mm Hg
same,Mean arterial pressure at hours after treatment 1,[1],164 mm Hg
same,Mean arterial pressure at hours after treatment 2,[1],166 mm Hg
same,Mean arterial pressure at hours after treatment 4,[1],158 mm Hg
same,Mean arterial pressure at hours after treatment 8,[1],167 mm Hg
same,Mean arterial pressure at hours after treatment 12,[1],172 mm Hg
same,Mean arterial pressure at hours after treatment 18,[1],172 mm Hg
same,Mean arterial pressure at hours after treatment 24,[1],162 mm Hg
same,Mean arterial pressure at hours after treatment 0,[2],184 mm Hg
same,Mean arterial pressure at hours after treatment 1/2,[2],184 mm Hg
same,Mean arterial pressure at hours after treatment 1,[2],180 mm Hg
same,Mean arterial pressure at hours after treatment 2,[2],178 mm Hg
same,Mean arterial pressure at hours after treatment 4,[2],177 mm Hg
same,Mean arterial pressure at hours after treatment 8,[2],184 mm Hg
same,Mean arterial pressure at hours after treatment 12,[2],183 mm Hg
same,Mean arterial pressure at hours after treatment 18,[2],185 mm Hg
same,Mean arterial pressure at hours after treatment 24,[2],182 mm Hg
"C[C@](N)(Cc1ccc(O)cc1)C(=O)O [α-methyl-p-tyrosine, L-α-methyl-p-tyrosine]",Mean arterial pressure at hours after treatment 0,[3],165 mm Hg
same,Mean arterial pressure at hours after treatment 1/2,[3],155 mm Hg
same,Mean arterial pressure at hours after treatment 1,[3],162 mm Hg
same,Mean arterial pressure at hours after treatment 2,[3],160 mm Hg
same,Mean arterial pressure at hours after treatment 4,[3],161 mm Hg
same,Mean arterial pressure at hours after treatment 8,[3],167 mm Hg
same,Mean arterial pressure at hours after treatment 12,[3],164 mm Hg
same,Mean arterial pressure at hours after treatment 18,[3],168 mm Hg
same,Mean arterial pressure at hours after treatment 24,[3],164 mm Hg
same,Mean arterial pressure at hours after treatment 0,[4],165 mm Hg
same,Mean arterial pressure at hours after treatment 1/2,[4],152 mm Hg
same,Mean arterial pressure at hours after treatment 1,[4],159 mm Hg
same,Mean arterial pressure at hours after treatment 2,[4],157 mm Hg
same,Mean arterial pressure at hours after treatment 4,[4],146 mm Hg
same,Mean arterial pressure at hours after treatment 8,[4],156 mm Hg
same,Mean arterial pressure at hours after treatment 12,[4],155 mm Hg
same,Mean arterial pressure at hours after treatment 18,[4],161 mm Hg
same,Mean arterial pressure at hours after treatment 24,[4],166 mm Hg
same,Mean arterial pressure at hours after treatment 0,[5],166 mm Hg
same,Mean arterial pressure at hours after treatment 1/2,[5],148 mm Hg
same,Mean arterial pressure at hours after treatment 1,[5],152 mm Hg
same,Mean arterial pressure at hours after treatment 2,[5],145 mm Hg
same,Mean arterial pressure at hours after treatment 4,[5],135 mm Hg
same,Mean arterial pressure at hours after treatment 8,[5],140 mm Hg
same,Mean arterial pressure at hours after treatment 12,[5],134 mm Hg
same,Mean arterial pressure at hours after treatment 18,[5],130 mm Hg
same,Mean arterial pressure at hours after treatment 24,[5],135 mm Hg
same,Mean arterial pressure at hours after treatment 0,[6],167 mm Hg
same,Mean arterial pressure at hours after treatment 1/2,[6],166 mm Hg
same,Mean arterial pressure at hours after treatment 1,[6],158 mm Hg
same,Mean arterial pressure at hours after treatment 2,[6],146 mm Hg
same,Mean arterial pressure at hours after treatment 4,[6],138 mm Hg
same,Mean arterial pressure at hours after treatment 8,[6],131 mm Hg
same,Mean arterial pressure at hours after treatment 12,[6],130 mm Hg
same,Mean arterial pressure at hours after treatment 18,[6],136 mm Hg
same,Mean arterial pressure at hours after treatment 24,[6],130 mm Hg
same,Mean arterial pressure at hours after treatment 0,[7],169 mm Hg
same,Mean arterial pressure at hours after treatment 1/2,[7],165 mm Hg
same,Mean arterial pressure at hours after treatment 1,[7],166 mm Hg
same,Mean arterial pressure at hours after treatment 2,[7],161 mm Hg
same,Mean arterial pressure at hours after treatment 4,[7],143 mm Hg
same,Mean arterial pressure at hours after treatment 8,[7],147 mm Hg
same,Mean arterial pressure at hours after treatment 12,[7],161 mm Hg
same,Mean arterial pressure at hours after treatment 18,[7],165 mm Hg
same,Mean arterial pressure at hours after treatment 24,[7],173 mm Hg
